Assay results published in patent publication US12029731B2, “Acyl benzo[d]thiazol-2-amine and their methods of use” (Biohaven Pharmaceutical Holding Company Ltd., priority 2016, dated 2024).
Entries after “also recorded” stand apart in the source; their conditions may differ.

Experiments:
[1] = test system: C8161 cells; settings: C8161 human melanoma cells; cited from earlier work
[2] = test system: C8161 cells; settings: positive control, in comparison with no treatment and DMSO treated; cited from earlier work
[3] = test system: Stage III and IV melanoma; assay: Phase 0 human clinical trial of riluzole in melanoma patients; format: in vivo; settings: after only 14 days of treatment
Description: We have recently shown that riluzole has dramatic anti-melanoma activity in vitro cellular assays, in mice and in a Phase 0 human clinical trial. […] However, the therapeutic utility of riluzole itself in ALS and eventually for melanoma is very constrained by rapid first-pass metabolism in the liver and an exceptionally high level of patient-to-patient variability in the extent of the Cyp1A2-mediated oxidative metabolism that is observed.

## Nc1nc2ccc(OC(F)(F)F)cc2s1 [riluzole]
[1]
  effect on excess cellular glutamate: inhibits excess cellular gluatamate
[2]
  C8161 cell growth: dose-dependent suppression
[3]
  patients with clinical or radiologic evidence of tumor response: four of 12; also recorded: four of twelve
